Reference: ChEMBL document CHEMBL1122344, “Pyridazinones. 2. Synthesis and antisecretory and antiulcer activities of thiourea and 2-cyanoguanidine derivatives” (1983)

How the values were obtained:
Type in all cases: functional
[1] = species on record: Rattus norvegicus; assay: Dose required to inhibit gastric secretory activity in pylorus lygated rats; conditions: Stomach
[2] = test system: Rattus norvegicus; assay: Gastric antisecretory activity at the dose of 100 mg/kg in pylorus lygated rats
[3] = species on record: Rattus norvegicus; assay: Dose required to inhibit ulcer induced by stress in rats

| SMILES | ED50 [1] | inhibition in vivo at 100 mg/kg [2] | ED50 [3] |
| --- | --- | --- | --- |
| C/N=C(/NC#N)NCCCCCCn1nc(-c2ccccc2)ccc1=O | > 100 mg/kg | 31.7% | > 100 mg/kg |
| CN(C)/C(=N/CCn1nc(-c2ccccc2)ccc1=O)NC#N | 62.8 mg/kg | 63.9% | > 100 mg/kg |
| CC/N=C(/NC#N)NCCCCn1nc(-c2ccccc2)ccc1=O | 92 mg/kg | 58.8% | 60.7 mg/kg |
| C/N=C(\S)NCCCCn1nc(C)ccc1=O | > 100 mg/kg | 44.5% |  |
| CN(C)/C(=N/CCCCCCn1nc(-c2ccccc2)ccc1=O)NC#N | 93.1 mg/kg | 58.4% | 92.5 mg/kg |
| CC/N=C(/NC#N)NCCCCn1nc(-c2ccccc2)cc(C)c1=O | > 100 mg/kg | 42.5% |  |
| CN(C)/C(=N/CCCn1nc(-c2ccccc2)ccc1=O)NC#N | 53 mg/kg | 72.2% | 93.1 mg/kg |
| CC/N=C(/NC#N)NCCCCCCn1nc(-c2ccccc2)ccc1=O | > 100 mg/kg | 29.1% | > 100 mg/kg |
| C/N=C(/NC#N)NCCCn1nc(-c2ccccc2)cc(C)c1=O | > 100 mg/kg | 42.8% |  |
| O=c1ccc(-c2ccccc2)nn1CCCCNC(=S)Nc1cccc2ccccc12 | > 100 mg/kg | 42.3% |  |
| C/N=C(/NC#N)NCCCCn1nc(C)ccc1=O | > 100 mg/kg | 23.5% |  |
| CN(C)/C(=N/CCCCn1nc(-c2ccccc2)ccc1=O)NC#N | 30.3 mg/kg | 80.7% | 52.9 mg/kg |
| N#CNC(=N)NCCCCn1nc(-c2ccccc2)ccc1=O | 77.2 mg/kg | 61.2% | 59.3 mg/kg |
| C/N=C(/NC#N)N(C)CCCCn1nc(-c2ccccc2)ccc1=O | > 100 mg/kg | 27% |  |
| CC(C)C/N=C(\S)NCCCCn1nc(-c2ccccc2)ccc1=O | > 100 mg/kg | 35.8% |  |
| O=c1ccc(-c2ccccc2)nn1CCCC/N=C(\S)Nc1ccc(F)cc1 | > 100 mg/kg | 45.6% |  |
| CC/N=C(/NC#N)NCCCCn1nc(-c2ccccc2)c(C)cc1=O | > 100 mg/kg | 38.8% |  |
| C/N=C(/NC#N)NCCCCn1nc(-c2ccc(C)cc2)ccc1=O | > 100 mg/kg | 45.7% |  |
| O=c1ccc(-c2ccccc2)nn1CCCCNC(=S)Nc1ccc(Cl)cc1 | > 100 mg/kg | 43.2% |  |
| C/N=C(/NC#N)NCCCCCn1nc(-c2ccccc2)ccc1=O | 100 mg/kg | 47.6% | 76.2 mg/kg |
| O=c1ccc(-c2ccccc2)nn1CCCC/N=C(\S)Nc1cccc(F)c1 | > 100 mg/kg | 30.4% |  |
| O=c1ccc(-c2ccccc2)nn1CCCCNC(=S)Nc1ccccc1 | > 100 mg/kg | 38.4% | > 100 mg/kg |
| C/N=C(/NC#N)NCCCn1nc(-c2ccccc2)ccc1=O | > 100 mg/kg | 40.5% | 78.1 mg/kg |
| C/N=C(/NC#N)NCCCCn1nc(-c2ccccc2)cc(C)c1=O | 60.8 mg/kg | 68.6% |  |

| SMILES | ED50 [1] | inhibition in vivo at 100 mg/kg [2] | ED50 [3] |
| --- | --- | --- | --- |
| CCC/N=C(/NC#N)NCCCCn1nc(-c2ccccc2)ccc1=O | > 100 mg/kg | 26.3% |  |
| CC/N=C(\S)NCCCn1nc(-c2ccccc2)ccc1=O | > 100 mg/kg | 39% | 88.2 mg/kg |
| C/N=C(/NC#N)NCCCCCn1nc(-c2ccccc2)c(C)cc1=O | > 100 mg/kg | 28.5% |  |
| N#CNC(=N)NCCCCCn1nc(-c2ccccc2)ccc1=O | > 100 mg/kg | 31% |  |
| C=CCNC(=S)NCCCCn1nc(-c2ccccc2)ccc1=O | > 100 mg/kg | 27.1% | 78.6 mg/kg |
| CC/N=C(/NC#N)NCCCCCn1nc(-c2ccccc2)ccc1=O | 100 mg/kg | 48.2% | 60.3 mg/kg |
| CN/C(=N\CCSCc1nc[nH]c1C)NC#N [CIMETIDINE] |  | 80.6% | 43.2 mg/kg |
| C/N=C(\S)NCCCCCn1nc(-c2ccccc2)ccc1=O | 35.3 mg/kg | 68.9% | 42.1 mg/kg |
| CCC/N=C(/NC#N)NCCCCCn1nc(-c2ccccc2)ccc1=O | > 100 mg/kg | 27.5% |  |
| N/C(S)=N/CCCCn1nc(-c2ccccc2)ccc1=O | 36.3 mg/kg | 72% |  |
| CNC(=S)CCCCCn1nc(-c2ccccc2)ccc1=O | 23.8 mg/kg | 90.3% | 18.3 mg/kg |
| C/N=C(\S)NCCCCn1nc(-c2ccccc2)ccc1=O | 28.9 mg/kg | 87.1% | 17.3 mg/kg |
| CN(C)/C(=N/CCCCCn1nc(-c2ccccc2)ccc1=O)NC#N | 81.5 mg/kg | 63.9% | 53.1 mg/kg |
| C/N=C(/NC#N)NCCCCCn1nc(-c2ccccc2)cc(C)c1=O | > 100 mg/kg | 33.8% |  |
| N#CNC(=N)NCCCn1nc(-c2ccccc2)ccc1=O | > 100 mg/kg | 33.3% |  |
| C/N=C(\S)NCCCn1nc(-c2ccccc2)ccc1=O | > 100 mg/kg | 38.9% | 58 mg/kg |
| C/N=C(/NC#N)NCCCCn1nc(N(C)C)ccc1=O | > 100 mg/kg | 26.3% |  |
| C/N=C(/NC#N)NCCCCn1nc(Nc2ccccc2)ccc1=O | > 100 mg/kg | 24.4% |  |
| CC/N=C(\S)NCCCCn1nc(-c2ccccc2)ccc1=O | 37.2 mg/kg | 67.7% | 19.8 mg/kg |
| CC/N=C(/NC#N)NCCCn1nc(C)ccc1=O | > 100 mg/kg | 34.5% |  |
| CCC/N=C(/NC#N)NCCCn1nc(-c2ccccc2)ccc1=O | 100 mg/kg | 52.9% |  |
| C/N=C(\S)NCCn1nc(-c2ccccc2)ccc1=O |  | 23.3% | > 100 mg/kg |
| CC/N=C(/NC#N)NCCCn1nc(-c2ccccc2)ccc1=O | 78.3 mg/kg | 62.9% | 88.5 mg/kg |
